Assay [1] is described as follows: Induction of anti-CD3/CD28 antibodies-stimulated human T cell activation at 1 uM assessed fold increase in IL-2 secretion measured by ELISA assay. Format: functional, T cell line. (ELISA stands for enzyme-linked immunosorbent assay.)
Assay [2] can be described thus: Induction of anti-CD3 antibodies-stimulated human T cell activation at 1 uM assessed fold increase in CD25 expression measured by ELISA assay. Further: reference of the scale not given here. The class given is functional, T cell line.
Assay [3] can be described thus: Induction of anti-CD3 antibodies-stimulated human T cell activation at 8 uM assessed fold increase in CD25 expression measured by ELISA assay. Further: reference of the scale not given here. Format: functional, T cell line.
Assay [4] in a line: Induction of anti-CD3/CD28 antibodies-stimulated human T cell activation at 4 uM assessed fold increase in IL-2 secretion measured by ELISA assay. The class given is functional, T cell line.
Assay [5] concerns the target E3 ubiquitin-protein ligase CBL-B (Homo sapiens, UniProt Q13191). Briefly: Inhibition of N-terminal Avi-tagged human CBL-B (36 to 427 residues) incubated with 60 nM Src kinase for 1.5 hrs followed by incubation with fluorescently labeled UbcH5B-Ub for 1 hr and measured by TR-FRET assay. Format: single protein. A general note: Time-resolved FRET reads energy transfer from a long-lived donor to a nearby acceptor.

Assay [6] is described as follows: Induction of anti-CD3/CD28 antibodies-stimulated human T cell activation at 4 uM assessed fold increase in CD25 expression measured by ELISA assay. Format: functional, T cell line.
The nature of assay [7]: Induction of anti-CD3/CD28 antibodies-stimulated human T cell activation at 0.3 uM assessed fold increase in IL-2 secretion measured by ELISA assay. Format: functional, T cell line.
The nature of assay [8]: Induction of anti-CD3 antibodies-stimulated human T cell activation at 8 uM assessed fold increase in IL-2 secretion measured by ELISA assay. Further: reference of the scale not given here. The class given is functional, T cell line.
A short description of assay [9]: Induction of anti-CD3/CD28 antibodies-stimulated human T cell activation at 1 uM assessed fold increase in CD25 expression measured by ELISA assay. Format: functional, T cell line.
The nature of assay [10]: Induction of anti-CD3/CD28 antibodies-stimulated human T cell activation at 0.3 uM assessed fold increase in CD25 expression measured by ELISA assay. The class given is functional, T cell line.
Assay [11] can be described thus: Induction of anti-CD3 antibodies-stimulated human T cell activation at 1 uM assessed fold increase in IL-2 secretion measured by ELISA assay. Further: reference of the scale not given here. The class given is functional, T cell line.

Sequence of E3 ubiquitin-protein ligase CBL-B (Q13191 whole entry, the tested form may be a part): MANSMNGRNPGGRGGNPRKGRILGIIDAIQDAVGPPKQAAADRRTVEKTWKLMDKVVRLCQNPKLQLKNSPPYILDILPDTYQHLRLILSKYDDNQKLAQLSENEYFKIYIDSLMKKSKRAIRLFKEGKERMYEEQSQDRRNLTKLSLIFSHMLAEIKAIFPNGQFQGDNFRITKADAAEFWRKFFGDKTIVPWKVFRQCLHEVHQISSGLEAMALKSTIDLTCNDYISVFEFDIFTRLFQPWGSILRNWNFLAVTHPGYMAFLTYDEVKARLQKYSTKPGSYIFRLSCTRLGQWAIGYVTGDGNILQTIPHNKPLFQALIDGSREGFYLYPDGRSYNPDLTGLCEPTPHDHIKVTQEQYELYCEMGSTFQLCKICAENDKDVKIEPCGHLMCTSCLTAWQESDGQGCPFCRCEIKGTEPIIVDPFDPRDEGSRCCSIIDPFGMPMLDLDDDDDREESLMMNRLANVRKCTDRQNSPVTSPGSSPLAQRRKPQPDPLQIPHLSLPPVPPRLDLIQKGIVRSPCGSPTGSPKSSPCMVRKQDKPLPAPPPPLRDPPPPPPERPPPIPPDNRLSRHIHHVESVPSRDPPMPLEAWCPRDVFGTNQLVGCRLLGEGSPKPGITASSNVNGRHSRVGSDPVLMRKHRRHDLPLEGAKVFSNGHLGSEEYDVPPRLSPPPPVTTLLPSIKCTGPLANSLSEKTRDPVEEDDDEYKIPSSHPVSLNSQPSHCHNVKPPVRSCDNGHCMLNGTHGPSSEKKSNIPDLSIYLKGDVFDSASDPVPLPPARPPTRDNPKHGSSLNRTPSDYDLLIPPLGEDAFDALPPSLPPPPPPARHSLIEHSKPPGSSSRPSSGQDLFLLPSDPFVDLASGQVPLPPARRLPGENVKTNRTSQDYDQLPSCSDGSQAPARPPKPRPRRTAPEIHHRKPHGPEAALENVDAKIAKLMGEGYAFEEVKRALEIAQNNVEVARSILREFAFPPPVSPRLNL

With `C[C@H](Cc1nncn1C)c1cccc(N2Cc3c(cc([C@H]4CCCNC4)cc3C(F)(F)F)C2=O)c1` (single isomer, unassigned), the “fold change (FC)” value is recorded as 5 in [1]; 0.801 in assay [2]; “>=1.001” in assay [3]; “>=7.5” in [4]; 1.51 in assay [6]; 2.51 in [7]. Moreover, the “fold change (FC)” value is “>=0.201” in [8], 1.51 in assay [9], 1.31 in assay [10] and “>=0.201” in assay [11]. Also, the IC50 (usually the concentration at which inhibition is half-maximal) in [5] was less than 100 nM.

Consider `Cn1cnnc1CC(C)(C)c1cccc(NC(=O)c2cc(C(=O)N3CC[C@H](O)C3)cc(C(F)(F)F)n2)c1`, for which the “fold change (FC)” value is 2.51 in assay [1]; 0.801 in assay [2]; “>=1.001” in assay [3]; 5 in assay [4]; 1.01 in [6]; 1.01 in assay [7]. Further, the “fold change (FC)” value in assay [8] is listed as “>=0.201”; in assay [9], 1.01; in assay [10] it was 1.01; in assay [11], 0.101. In assay [5], this molecule had an IC50 of less than 100 nM.

With `Cn1cnnc1CC1(c2cccc(N3Cc4c(cc(CN5CC(C(=O)O)C5)cc4C(F)(F)F)C3=O)c2)COC1`, the “fold change (FC)” value in [1] is 1.01; in assay [2], 0.801; in assay [3] it was “>=1.001”; in assay [4], 1.01; in assay [6], 1.01; in assay [7], 1.01. Besides, the “fold change (FC)” value in assay [8] is listed as “>=0.201”; in assay [9], 1.01; in [10], 1.01; in assay [11], 0.151. For the same molecule, the IC50 in assay [5] is less than 100 nM.

For `Cn1cnnc1C(F)(F)[C@](C)(F)c1cccc(N2Cc3c(cc(CN4CC(C(F)F)C4)cc3C(F)(F)F)C2=O)c1`, the “fold change (FC)” value in assay [1] is recorded as “>=7.5”; in [2], “>=1.001”; in [3], “>=1.001”; in assay [4] it was “>=7.5”; in assay [6], 1.31; in [7], 5. Further, the “fold change (FC)” value is reported as 0.151 in assay [8], 1.31 in assay [9], 1.31 in assay [10] and “>=0.201” in assay [11]. Besides, the IC50 in [5] is less than 100 nM.

Turning to `Cn1cnnc1C(F)(F)[C@](C)(F)c1cccc(N2Cc3c(cc(CN4CC[C@H](C#N)C4)cc3C(F)(F)F)C2=O)c1`, the “fold change (FC)” value was “>=7.5” in [1]; “>=1.001” in [2]; “>=1.001” in [3]; “>=7.5” in assay [4]; 1.31 in assay [6]; 5 in assay [7]. Also, the “fold change (FC)” value in assay [8] was “>=0.201”; in assay [9], 1.31; in [10], 1.01; in assay [11], “>=0.201”. This molecule also displayed an IC50 in [5] of less than 100 nM.

As for `Cn1cnnc1[C@H](F)C(C)(F)c1cccc(N2Cc3c(cccc3C(F)(F)F)C2=O)c1` (single isomer, unassigned), the “fold change (FC)” value in assay [1] worked out at 1.01; in [2], 0.601; in assay [3] it was 0.801; in assay [4], 1.01; in assay [6], 1.01; in assay [7], 1.01. For the same molecule, the “fold change (FC)” value is 0.101 in [8], 1.01 in [9], 1.01 in assay [10] and “<=0.05” in assay [11]. The molecule also displayed an IC50 in [5] of less than 100 nM.

As to `C[C@@H](c1cccc(N2Cc3c(cccc3C(F)(F)F)C2=O)c1)[C@@H](F)c1nncn1C` (single isomer, unassigned), the “fold change (FC)” value in assay [1] is recorded as 1.01; in assay [2] it was 0.601; in assay [3] it was “>=1.001”; in [4], 2.51; in [6], 1.01; in assay [7], 1.01. Moreover, the “fold change (FC)” value is on record as “>=0.201” in assay [8], 1.01 in assay [9], 1.01 in assay [10] and 0.051 in assay [11]. In [5], this molecule gave an IC50 of less than 100 nM.

Consider `Cn1cnnc1CC1(c2cccc(N3Cc4c(cc(CN5CCCC5=O)cc4C(F)(F)F)C3=O)c2)COC1`, for which the “fold change (FC)” value in assay [1] was 1.01; in assay [2] it was “>=1.001”; in assay [3] it was “>=1.001”; in assay [4], 2.51; in assay [6], 1.01; in assay [7], 1.01. Also, the “fold change (FC)” value in [8] is reported as “>=0.201”; in [9] it was 1.01; in assay [10] it was 1.01; in assay [11], 0.151. This molecule came in with an IC50 in [5] of less than 100 nM.

Regarding `C[C@@H]1CN(C)CCN1c1cc2c(c(C(F)(F)F)c1)CN(c1cccc([C@@](C)(F)C(F)(F)c3nncn3C)c1)C2=O`, the “fold change (FC)” value in assay [1] was 1.01; in [2], 0.801; in assay [3] it was “>=1.001”; in [4], 2.51; in assay [6] it was 1.31; in assay [7], 1.01. For the same molecule, the “fold change (FC)” value is 0.101 in assay [8], 1.01 in assay [9], 1.01 in assay [10] and “<=0.05” in assay [11]. The same molecule had an IC50 in [5] of less than 100 nM.

In the case of `Cn1cnnc1CC1(c2cccc(NC(=O)c3cc(C4CC4)nc(C(F)(F)F)n3)c2)COC1`, the “fold change (FC)” value is listed as “>=7.5” in [1]; 0.801 in [2]; “>=1.001” in [3]; “>=7.5” in assay [4]; 1.51 in assay [6]; 2.51 in assay [7]. Moreover, the “fold change (FC)” value in [8] is “>=0.201”; in assay [9] it was 1.31; in assay [10] it was 1.01; in assay [11] it was 0.151. Further, in assay [5], the IC50 was less than 100 nM.

`Cc1ccc(C(=O)Nc2cccc([C@H](C)Sc3nncn3C)c2)nc1C1CC1`: the “fold change (FC)” value in assay [1] is 2.51; in [2], 0.601; in assay [3], 0.801; in assay [4], “>=7.5”; in assay [6], 1.01; in [7] it was 1.01. Besides, the “fold change (FC)” value in assay [8] is 0.151; in assay [9], 1.01; in assay [10] it was 1.01; in assay [11], “<=0.05”. This molecule also returned an IC50 in [5] of less than 100 nM.

Take `C[C@H](Sc1nncn1C)c1cccc(NC(=O)c2cccc(C3CC3)n2)c1`: the “fold change (FC)” value in assay [1] is recorded as 2.51; in assay [2], “<=0.6”; in assay [3], 0.801; in [4], 2.51; in assay [6], 1.51; in assay [7], 1.01. Also, the “fold change (FC)” value was found to be 0.151 in assay [8], 1.51 in [9], 1.31 in assay [10] and 0.051 in assay [11]. The IC50 in assay [5] was less than 100 nM.
